Reference: patent publication US20160355483A1, “COMPOUND BINDING TO PPARG BUT NOT ACTING AS PROMOTER AND PHARMACEUTICAL COMPOSITION FOR TREATING PPARG-RELATED DISEASES CONTAINING SAME AS ACTIVE INGREDIENT” (Hyundai Pharm Co., Ltd., priority 2014, published 2016)

Molecular target: T1, PPARG (peroxisome proliferator activated receptor-gamma), GST-PPARG-LBD (Homo sapiens, UniProt P37231)
T1 construct: 15 μL of 5 nM GST-PPARG-LBD and 5 nM Tb-GST-antibody were added; purchased Invitrogen PV4894
T1 sequence (P37231 238-503 limits assumed): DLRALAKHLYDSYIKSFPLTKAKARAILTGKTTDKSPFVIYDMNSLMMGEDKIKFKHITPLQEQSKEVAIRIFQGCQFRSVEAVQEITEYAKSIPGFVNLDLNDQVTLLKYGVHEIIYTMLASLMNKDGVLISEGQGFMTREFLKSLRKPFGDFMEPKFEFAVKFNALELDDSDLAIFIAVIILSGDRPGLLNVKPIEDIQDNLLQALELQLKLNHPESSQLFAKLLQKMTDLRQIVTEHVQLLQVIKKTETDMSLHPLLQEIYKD
Test: LanthaScreen TR-FRET PPARG Competitive Binding Assay
Parameters: key: “+” indicates the degree of the binding activity, and as the number of “+” increases, the binding activity is stronger; ++: “+” indicates the degree of the binding activity, and as the number of “+” increases, the binding activity is stronger; +++: “+” indicates the degree of the binding activity, and as the number of “+” increases, the binding activity is stronger; ++++: “+” indicates the degree of the binding activity, and as the number of “+” increases, the binding activity is stronger
Details: degree of binding activity
Description: The following experiment was performed to evaluate the PPARG (peroxisome proliferator activated receptor-gamma) binding capacity and transcriptional activity of the compounds prepared in the examples of the invention. For the experiment, LanthaScreen™ TR-FRET PPARG Competitive Binding Assay Kit (PV4894, Invitrogen) was used according to the manufacturer's instruction. […] The mixture was loaded in a 384-well plate (Greiner, 784075) by 20 μL per well, followed by reaction at room temperature for 1 hour. Upon completion of the reaction, fluorescence value was measured by using Flexstation 3 (Molecular Devices) with time-resolved fluorescence (RFU) mode (excitation 1: 340 nm, emission 1: 518 nm, excitation 2: 340 nm, emission 2: 488 nm, integration delay 50 μs, integration 400 μs). The results were calculated by using 518 nm RFUs/488 nm RFUs ratio. The activity of the compounds of the invention was compared with that of the vehicle, which was calculated by ratio according to the formula [100%−compound of the example ratio/vehicle ratio]. At this time, the binding activity ratio to rosiglitazone was compared.

SMILES | Binding assay (1 μLM)
C[C@H](NC(=O)c1ccc2c(c1)CCCN2Cc1ccccc1-c1ccc(C(=O)O)cc1)c1ccccc1 [Example 152, (S)-2′-((6-((1-phenylethyl)carbamoyl)-3,4-dihydroquinoline-1 (2H)-yl)methyl)-[1,1′-biphenyl]-4-carboxylic acid] | ++
C[C@H](NC(=O)c1ccc2c(c1)OCCN2Cc1ccccc1-c1ccc(C(N)=O)cc1)c1ccc(C#N)cc1 [Example 149, (S)-4-((4′-carbamoyl-[1,1′-biphenyl]-2-yl)methyl)-N-(1-(4-cyanophenyl)ethyl)-3,4-dihydro-2H-benzo[b][1,4]oxazine-7-carboxamide] | +
NC(=O)c1ccccc1-c1ccc(CN2CCOc3cc(C(=O)NCc4ccccc4)ccc32)cc1 [Example 100, N-benzyl-4-((2′-carbamoyl-[1,1′-biphenyl]-4-yl)methyl)-3,4-dihydro-2H-benzo[b][1,4]oxazine-7-carboxamide] | ++
Cc1cc(F)ccc1[C@H](C)NC(=O)c1ccc2c(c1)OCCN2Cc1ccc(-c2ccccc2C(=O)O)cc1 [Example 79, (S)-4′-((7-((1-(4-fluoro-2-methylphenyl)ethyl)carbamoyl)-2H-benzo[b][1,4]oxazine-4(3H)-yl)methyl)-[1,1′-biphenyl]-2-carboxylic acid] | ++
COc1cccc([C@H](C)NC(=O)c2ccc3c(c2)CCCN3Cc2ccc(-c3ccccc3C(N)=O)cc2)c1 [Example 40, (S)-1-((2′-carbamoyl-[1,1′-biphenyl]-4-yl)methyl)-N-(1-(3-methoxyphenyl)ethyl)-1,2,3,4-tetrahydroquinoline-6-carboxamide] | +++
C[C@H](NC(=O)c1ccc2c(c1)CCCN2Cc1cccc(-c2ccccc2C(N)=O)c1F)c1ccc2ccccc2c1 [Example 132, (S)-1-((2′-carbamoyl-2-fluoro-[1,1′-biphenyl]-3-yl)methyl)-N-(1-(naphthalene-2-yl)ethyl)-1,2,3,4-tetrahydroquinoline-6-carboxamide] | ++++
C[C@H](NC(=O)c1ccc2c(c1)CCCN2Cc1ccc(-c2ccccc2C(N)=O)cc1)c1ccccc1F [Example 42, (S)-1-((2′-carbamoyl-[1,1′-biphenyl]-4-yl)methyl)-N-(1-(2-fluorophenyl)ethyl)-1,2,3,4-tetrahydroquinoline-6-carboxamide] | +++
NC(=O)c1ccccc1-c1ccc(CN2CCOc3cc(C(=O)NCc4ccc5c(c4)OCCO5)ccc32)cc1 [Example 102, 4-((2′-carbamoyl-[1,1′-biphenyl]-4-yl)methyl)-N-((2,3-dihydrobenzo[b][1,4]dioxin-6-yl)methyl)-3,4-dihydro-2H-benzo[b][1,4]oxazine-7-carboxamide] | +
C[C@H](NC(=O)c1ccc2c(c1)CCCN2Cc1ccc(-c2ccccc2C(N)=O)cc1F)c1ccc(C#N)cc1 [Example 112, (S)-1-((2′-carbamoyl-3-fluoro-[1,1′-biphenyl]-4-yl)methyl)-N-(1-(4-cyanophenyl)ethyl)-1,2,3,4-tetrahydroquinoline-6-carboxamide] | +++
C[C@H](NC(=O)c1ccc2c(c1)CCCN2Cc1ccc(-c2ccccc2C(=O)O)cc1)c1ccccc1F [Example 24, (S)-4′-((6-((1-(2-fluorophenyl)ethyl)carbamoyl)-3,4-dihydroquinoline-1(2H)-yl)methyl)-[1,1′-biphenyl]-2-caboxylic acid] | +++
Cc1ccc([C@H](C)NC(=O)c2ccc3c(c2)CCCN3Cc2cccc(-c3ccccc3C(N)=O)c2)cc1F [Example 125, (S)-1-((2′-carbamoyl-[1,1′-biphenyl]-3-yl)methyl)-N-(1-(3-fluoro-4-methylphenyl)ethyl)-1,2,3,4-tetrahydroquinoline-6-carboxamide] | +++
C[C@H](NC(=O)c1ccc2c(c1)CCCN2Cc1ccc(-c2ccccc2C(=O)O)cc1)c1cccc(Cl)c1 [Example 9, (S)-4′-((6-((1-(3-chlorophenyl)ethyl)carbamoyl)-3,4-dihydroquinoline-1(2H)-yl)methyl)-[1,1′-biphenyl]-2-caboxylic acid] | ++++
